Measurements from patent publication US9464106B2, “Oligonucleotides useful for detecting and analyzing nucleic acids of interest” (Exiqon A/S, priority 2002, dated 2016).
Marks after values point to notes of the source that are not given here. l = locked nucleic acid (LNA); [5mC] = 5-methylcytosine; d = 2'-deoxy (DNA)

What follows are compounds tested on yeast HSP78 (YDR258C) sequence (assay: Duplex melting temperatures of HSP78 25-mer capture probes (UV spectrophotometer)). Settings: 25-mer capture probe duplex with complementary target; design PM = perfectly matched, MM = single mismatch; DNA, LNA_T (T) or LNA_TC (TC) substituted.

Compound	Average duplex melting temp. [°C]
12813 (DNA TCAGTTAGCCAATCCTTCGCTTCAT; sugars from the 5' end llddlddddlddldldlldlddldd, [5mC] at 2, 10, 15, 18, 20, 23, backbone not given here; further chemistry not fully specified) [compound 12813]	81.8
12814 (DNA GTTGCCATGGAGTTCAAAATCTGTC; sugars from the 5' end dlddlldlddddldlddddllddld, [5mC] at 5, 6, 15, 21, backbone not given here; further chemistry not fully specified) [compound 12814]	78.3
12815 (DNA AGACGTACAGCATCAGAAATAGCAG; DNA at AG, LNA at CT, all C 5-methyl, backbone not given here; further chemistry not fully specified) [compound 12815]	81.9
12816 (DNA TTTGGTAGCACGACAAGCTTAGTAT; sugars from the 5' end ldlddlddldlddldddldlddldd, all C 5-methyl, backbone not given here; further chemistry not fully specified) [compound 12816]	79
12817 (DNA ATAAAGCTGGCAATAGGTCTCTTTT; sugars from the 5' end dlddddllddlddldddllldllld, [5mC] at 7, 11, 19, backbone not given here; further chemistry not fully specified) [compound 12817]	81.2
12818 (DNA TTTTTCGGCCAAACGATCTTGAATT; sugars from the 5' end ldldllddlldddldddldldddld, all C 5-methyl, backbone not given here; further chemistry not fully specified) [compound 12818]	77.8
12819 (DNA CACTCTAACAGTTTCGCCGTTTCTA; sugars from the 5' end ldldldddldddldddlddldllld, [5mC] at 1, 3, 5, 9, 17, 23, backbone not given here; further chemistry not fully specified) [compound 12819]	81.9
12820 (DNA TCAATGGCCTTGCACCATATAATTG; sugars from the 5' end llddlddldlldlddldldlddlld, [5mC] at 2, 8, 13, 16, backbone not given here; further chemistry not fully specified) [compound 12820]	83.5
12821 (DNA AAAACGACAGCATAAGGCTTTCTTC; sugars from the 5' end ddddlddlddldlddddlldlldld, [5mC] at 5, 8, 11, 18, 22, backbone not given here; further chemistry not fully specified) [compound 12821]	79
12822 (DNA ATTGACCTCAAAACTTTCTTGGATA; sugars from the 5' end dllddllllddddllldllldddld, all C 5-methyl, backbone not given here; further chemistry not fully specified) [compound 12822]	75.6
12823 (DNA CCCAACTTTGTGTCGTTTAATAAAA; sugars from the 5' end llldddllddldlddlllddldddd, [5mC] at 1, 2, 3, backbone not given here; further chemistry not fully specified) [compound 12823]	74.8

What follows are compounds tested on C. elegans genes relevant for general stress response and metabolism of toxic compounds (assay: Expression profiling on C. elegans LNA tox oligoarray, beta-naphthoflavone and primaquine). Settings: cRNA target; 24 hours.
Type: in vivo, Caenorhabditis elegans
Method: For all cultures the sample is divided into two, and one half of the sample is used as the control, the other as the treated sample. Worm samples are harvested and sucrose cleaned by standard methods. For heat shock treatment: the heat shock sample is added to S-media preheated to 33° C. in a 1 L flask suspended in a water bath at 33° C., the other sample is added to a 1 L flask with S-media at 25° C. Both samples are shaken at approximately 100 rpm. for an hour. For β-naphthoflavone and primaquine treatment: 0.5 mL of 5 mg/mL β-naphthoflavone in DMSO or 0.5 mL of 20 mg/mL primaquine in DMSO were added to each 500 mL volume of S-media culture after 28 hours of growth from L1. At the same time 0.5 mL of DMSO was added to the control. Incubation was for 24 hours. Samples are then harvested by centrifugation at 3000×g suspended in RNALater™ (Ambion) and immediately frozen in liquid nitrogen.
First and second strand cDNA syntheses were made using the MessageAmp™ aRNA Kit (Ambion) according to suppliers' instructions. Five microgram of C. elegans total RNA was used as template for cDNA syntheses. Syntheses of fluorescent cRNA were made according to the MessageAmp™ aRNA Kit (Ambion) protocol with minor modifications. Cy3™-UTP or Cy5™-UTP (6 μl of a 5 mM solution Amersham Biosciences, USA) replaced biotin-CTP. The final concentration of ATP, CTP, and GTP was 7.5 mM whereas the concentration of UTP was reduced to 4.9 mM.
The arrays were hybridized overnight using the following protocol. The Cy3™ and Cy5™-labelled cDNA or cRNA samples were combined in one tube followed by addition of 3 μL 20×SSC (3×SSC final), 0.5 μL 1 M HEPES, pH 7.0 (25 mM final), 25 μg yeast tRNA (1.25 μg/μL final), 0.6 μL 10% SDS (0.3% final), and DEPC-treated water to 20 μL final volume. The labelled cDNA target sample was filtered in a Millipore 0.22 micron spin column according to the manufacturer's instructions (Millipore, USA), and the probe was denatured by incubating the reaction at 100° C. for 2 min. The sample was cooled at 20-25° C. for 5 min. by spinning at max speed in a microcentrifuge. A LifterSlip (Erie Scientific Company, USA) was carefully placed on top of the microarray spotted on Immobilizer™ MicroArray Slide and the hybridization mixture was applied to the array from the side. An aliquot of 30 μL of 3×SSC was added to both ends of the hybridization chamber, and the Immobilizer™ MicroArray Slide was placed in the hybridization chamber. The chamber was sealed watertight and incubated at 65° C. for 16-18 hours submerged in a water bath. After hybridisation, the slide was removed carefully from the hybridization chamber and washed using the following protocol. The Lifterslip coverslip was washed off in 2×SSC, pH 7.0 containing 0.1% SDS at room temperature for 1 min., followed by washing of the microarrays subsequently in 1.0×SSC, pH 7.0 at room temperature for 1 min, and then in 0.2×SSC, pH 7.0 at room temperature for 1 min. Finally the slides were washed for 5 seconds in 0.05×SSC, pH 7.0. The slides were then dried by centrifugation in a swinging bucket rotor at approximately 200 G for 2 min. The slide is now ready for scanning.
Following washing and drying, the slides were scanned using a ScanArray 4000XL scanner (Perkin-Elmer Life Sciences, USA), and the array data were processed using the GenePix™ Pro 4.0 software package (Axon, USA). The data in each image was normalized so that the ratio of means of all of the features is equal to 1.

Compound	Log2 transformed fold of change, ABC_F57C12.4	Log2 transformed fold of change, CYP_F14F7.2	Log2 transformed fold of change, DC_W05G11.3	Log2 transformed fold of change, ER_26S	Log2 transformed fold of change, PPGB_F13D12.6	Log2 transformed fold of change, RPL_K11H12.2	Log2 transformed fold of change, ABC_C34G6.4	Log2 transformed fold of change, CYP_C03G6.15	Log2 transformed fold of change, CYP_C06B3.3	Log2 transformed fold of change, CYP_C49G7.8
COc1cc(NC(C)CCCN)c2ncccc2c1 (stereo not shown) [Primaquine, primaquine]	−1.11	−1.24	1.16	−1.09	1.08	1.15				
O=c1cc(-c2ccccc2)oc2ccc3ccccc3c12 [beta-naphthoflavone, β-naphthoflavone]		−1.03		−1.01	1.21	1.42	1.01	2.35	2.47	2.40

Same assay, conditions: cRNA target; 24 hours

Compound	Log2 transformed fold of change, CYP_K07C6.5	Log2 transformed fold of change, CYP_K09D9.2	Log2 transformed fold of change, HSP_C47E8.5	Log2 transformed fold of change, HSP_F26D10.3	Log2 transformed fold of change, HSP_F43D9.4	Log2 transformed fold of change, NAP_D2096.8	Log2 transformed fold of change, RAD_Y116A8C.133	Log2 transformed fold of change, Ubi_F25B5.4
O=c1cc(-c2ccccc2)oc2ccc3ccccc3c12 [beta-naphthoflavone, β-naphthoflavone]	2.68	2.14	1.17	1.05	1.27	1.14	1.13	1.37

The compounds below were run on complementary single stranded DNA (3′-ctgNatcc) (assay: Melting temperatures of DNA and LNA 8-mers containing inosine, 2,6-diaminopurine or 2-aminopurine against complementary DNA). Settings: duplex 2.5 μM; 0.1M NaCl; 10 mM Na-phosphate (pH 7.0); 1 mM EDTA.
Type: binding

Compound	Tm of the duplex with 3′-ctgaatcc	Tm of the duplex with 3′-ctgcatcc [°C]	Tm of the duplex with 3′-ctggatcc	Tm of the duplex with 3′-ctgtatcc [°C]
5′-GACATAGG [Entry 8]	38.2 °C	40.6	43.4 °C	61.6
5′-GACDTAGG [Entry 11]	42.2 °C	52.4	41.4 °C	67.8
5′-GACGTAGG [Entry 10]	32^b ° C.	70.9	41^b ° C.	55.0
5′-GACITAGG [Entry 13]	48.2 °C	59.9	43.0 °C	53.1
5′-GACTTAGG [Entry 9]	60.7 °C	23.5	36.4 °C	28.0
5′-GDCDTDGG [Entry 12]	55.9 °C	63.8	54.7 °C	78.3
5′-gacatagg [Entry 1, reference compound]	<10 °C	<10	<10 °C	23.8
5′-gacdtagg [Entry 4, reference compound]	<10 °C	<10	<10 °C	23.3
5′-gacgtagg [Entry 3, reference compound]	<10 °C	25.0	<10 °C	<10
5′-gacitagg [Entry 6, reference compound]	<10 °C	20.9	<10 °C	<10
5′-gacttagg [Entry 2, reference compound]	22.6 °C	<10	<10 °C	<10

Same assay, conditions: entries 1 and 4

Compound	destabilization of the duplex on analogous replacement in a DNA octamer [°C]
5′-gacdtagg [Entry 4, reference compound]	0.5

Same assay, conditions: entries 8 and 11

Compound	stabilization of the complementary duplex on replacement of one internal LNA-A by LNA-D [°C]
(1R,3R,4R,7S)-7-(2-Cyanoethoxy(diisopropylamino)phosphinoxy)-1-(4,4′-dimethoxytrityloxymethyl)-3-(hyroxanthin-9-yl)-dioxabicyclo[2.2.1]heptane [compound 11]	6.2
